Laboratory results reported in patent publication US12024510B2, “Pyrazolopyridine-diamides, their use as insecticide and processes for preparing the same” (PI INDUSTRIES LTD., priority 2017, dated 2024).

Legend:
[1] = tested on: Plutella xylostella; test: whole plant or invertebrate; format: in vivo; conditions: foliar, cabbage leaf dip, second instar larvae, dead and moribund combined, 72 h after release
Description: (§1) Test Solutions were Prepared According to the Procedure Described Herein Below (500 PPM):
(§2) • 1. Eppendorf Vortex mixer (ThermoMixer C) and 1.5 mL Eppendorf tubes • 2. Zirconia (Zirconium-Yttrium) beads having diameter of 0.8 to 1.0 mm • 3. Microscope • 4. Beaker 100 mL • 5. Micro-pipette Reagents: • 1. Surfactant Solution • 2. De-mineralized (DM) Water • 1. Weigh 10 mg of the compound of the present invention to be tested in an Eppendorf Tube. • 2. Add 200 mg of the Surfactant Solution into the tube. • 3. Add 600 mg of Zirconia beads into the above mixture. • 4. Fix the tube in Eppendorf Vortex mixer and start vortexing at 2000 rpm. • 5. Mix on Vortex mixer for 30 minutes. After 30 minutes, observe the sample over a microscope at 400× resolution. • 6. If the Maximum particle size is more than 5 μm or average particle size is more than 2 μm or the particle size distribution is uneven, continue vortexing for another 30 minutes and again check the particle size using the microscope. Continue till the average particle size is below 2 microns. • 7. When the required particle size is achieved, add 1.0 mL DM water into the tube, close the cap, shake the tube thoroughly and transfer the contents, along with the beads, into a beaker. • 8. To rinse the tube, add another 1.0 mL of DM water into the tube, close the cap, shake well and transfer this into the same beaker. • 9. Repeat Step no. 8 one more time so that the tube is rinsed well and the compound of the present invention to be tested is transferred to the beaker. • 10. Add 16.8 mL of DM water into the beaker and stir well. • 11. The homogeneous dispersion can then be decanted into a glass vial, immediately, to separate the Zirconia beads. • 12. Immediately use this sample for biological testing. • 13. Further dilutions can be prepared by taking appropriate quantity of the aliquot of Step 10, immediately after stirring, and diluting as per requirement. The sample solution must be well mixed just before biological testing.
Leaf dip method was used for screening, wherein the required quantity of the compounds were weighed and dissolved in the test solution into the tube and vortex at 2000 rpm with Zirconia beads for 90 min for proper mixing, then mixed with 0.01% Triton-X solution to get the desired test concentration. Cabbage leaves were dipped in the solution for 10 seconds, shade dried for 20 min and then transferred to bioassay trays. Single second instar larva was released into each cell and the tray was covered with lid. The bio-assay trays were kept under laboratory conditions at a temperature of 25° C. and relative humidity of 70%. Observations on dead, moribund and live larvae were recorded at 72 h after the release. Percent mortality was calculated by combining dead and moribund larvae. The following compound num.

[2] = tested on: Helicoverpa armigera; test: Helicoverpa armigera diet incorporation method; format: in vivo; conditions: third instar larvae, dead and moribund combined, 96 h after release
Description: as §1, §2
Diet incorporation method was used, in which and semi-synthetic diet was incorporated into the test solution when the temperature is approximately 50° C. in the bioassay containers and stirred thoroughly for properly mixing and then was allowed to cool for 30 min. The solidified diet was cut into equal pieces, and then each piece was transferred in one cell in Bio-assay trays. A single third instar starved larva was released into each of these cells of bioassay trays and the tray was covered with the lid. The bio-assay trays were kept under laboratory conditions at a temperature of 25° C. and Relative Humidity of 70%. Observations on dead, moribund and live larvae were recorded at 96 h after the release of larvae. Percent mortality was calculated by combining dead and moribund larvae. The following compound numbers

SMILES | mortality at 300 ppm [1] [%] | mortality at 300 ppm [2] [%]
CNC(=O)c1c(NC(=O)c2cc(C(F)(F)F)nn2-c2ncccc2Cl)c(Br)cc2ccnn12 [Compound 104, 5-bromo-6-(1-(3-chloropyridin-2-yl)-3-(trifluoromethyl)-1H-pyrazole-5-carboxamido)-N-methylpyrazolo[1,5-a]pyridine-7-carboxamide] | > 70 | 
Cc1cc2ccnn2c(C(=O)NOC(C)C)c1NC(=O)c1cc(Br)nn1-c1ncccc1Cl [Compound 105, 6-(3-bromo-1-(3-chloropyridin-2-yl)-1H-pyrazole-5-carboxamido)-N-isopropoxy-5-methylpyrazolo[1,5-a]pyridine-7-carboxamide] | > 70 | 
COc1cc(C(=O)Nc2c(C)cc3ccnn3c2C(N)=O)n(-c2ncccc2Cl)n1 [Compound 111, 6-(1-(3-chloropyridin-2-yl)-3-methoxy-1H-pyrazole-5-carboxamido)-5-methylpyrazolo[1,5-a]pyridine-7-carboxamide] | > 70 | 
CCONC(=O)c1c(NC(=O)c2cc(OC)nn2-c2ncccc2Cl)c(C)cc2ccnn12 [Compound 112, 6-(1-(3-chloropyridin-2-yl)-3-methoxy-1H-pyrazole-5-carboxamido)-N-ethoxy-5-methylpyrazolo[1,5-a]pyridine-7-carboxamide] | > 70 | 
COc1cc(C(=O)Nc2c(C)cc3ccnn3c2C(=O)NOC(C)C)n(-c2ncccc2Cl)n1 [Compound 113, 6-(1-(3-chloropyridin-2-yl)-3-methoxy-1H-pyrazole-5-carboxamido)-N-isopropoxy-5-methylpyrazolo[1,5-a]pyridine-7-carboxamide] | > 70 | 
COCCNC(=O)c1c(NC(=O)c2cc(C(F)(F)F)nn2-c2ncccc2Cl)c(C)cc2ccnn12 [Compound 118, 6-(1-(3-chloropyridin-2-yl)-3-(trifluoromethyl)-1H-pyrazole-5-carboxamido)-N-(2-methoxyethyl)-5-methylpyrazolo[1,5-a]pyridine-7-carboxamide] | > 70 | 
CCCNC(=O)c1c(NC(=O)c2cc(OC)nn2-c2ncccc2Cl)c(Br)cc2ccnn12 [Compound 120, 5-bromo-6-(1-(3-chloropyridin-2-yl)-3-methoxy-1H-pyrazole-5-carboxamido)-N-propylpyrazolo[1,5-a]pyridine-7-carboxamide] |  | > 70
COc1cc(C(=O)Nc2c(Br)cc3ccnn3c2C(=O)NC2CC2)n(-c2ncccc2Cl)n1 [Compound 122, 5-bromo-6-(1-(3-chloropyridin-2-yl)-3-methoxy-1H-pyrazole-5-carboxamido)-N-cyclopropylpyrazolo[1,5-a]pyridine-7-carboxamide] |  | > 70
COc1cc(C(=O)Nc2c(Br)cc3ccnn3c2C(=O)NCC2CC2)n(-c2ncccc2Cl)n1 [Compound 123, 5-bromo-6-(1-(3-chloropyridin-2-yl)-3-methoxy-1H-pyrazole-5-carboxamido)-N-(cyclopropylmethyl)pyrazolo[1,5-a]pyridine-7-carboxamide] |  | > 70
CONC(=O)c1c(NC(=O)c2cc(OC)nn2-c2ncccc2Cl)c(Br)cc2ccnn12 [Compound 124, 5-bromo-6-(1-(3-chloropyridin-2-yl)-3-methoxy-1H-pyrazole-5-carboxamido)-N-methoxypyrazolo[1,5-a]pyridine-7-carboxamide] |  | > 70
Cc1cc2ccnn2c(C(=O)NC2CONC2=O)c1NC(=O)c1cc(C(F)(F)F)nn1-c1ncccc1Cl (centres unmarked) [Compound 128, 6-(1-(3-chloropyridin-2-yl)-3-(trifluoromethyl)-1H-pyrazole-5-carboxamido)-5-methyl-N-(3-oxoisoxazolidin-4-yl)pyrazolo[1,5-a]pyridine-7-carboxamide] | > 70 | 
O=C(Nc1c(Br)cc2ccnn2c1C(=O)NC1CONC1=O)c1cc(C(F)(F)F)nn1-c1ncccc1Cl (centres unmarked) [Compound 129, 5-bromo-6-(1-(3-chloropyridin-2-yl)-3-(trifluoromethyl)-1H-pyrazole-5-carboxamido)-N-(3-oxoisoxazolidin-4-yl)pyrazolo[1,5-a]pyridine-7-carboxamide] | > 70 | 
CCNC(=O)c1c(NC(=O)c2cc(OC3CSC3)nn2-c2ncccc2Cl)c(C)cc2ccnn12 [Compound 144, 6-(1-(3-chloropyridin-2-yl)-3-(thietan-3-yloxy)-1H-pyrazole-5-carboxamido)-N-ethyl-5-methylpyrazolo[1,5-a]pyridine-7-carboxamide] | > 70 | 
COc1cc(C(=O)Nc2c(Cl)cc3ccnn3c2C(=O)NCC#N)n(-c2ncccc2Cl)n1 [Compound 149, 5-chloro-6-(1-(3-chloropyridin-2-yl)-3-methoxy-1H-pyrazole-5-carboxamido)-N-(cyanomethyl)pyrazolo[1,5-a]pyridine-7-carboxamide] | > 70 | 
CONC(=O)c1c(NC(=O)c2cc(OC)nn2-c2ncccc2Cl)c(Cl)cc2ccnn12 [Compound 150, 5-chloro-6-(1-(3-chloropyridin-2-yl)-3-methoxy-1H-pyrazole-5-carboxamido)-N-methoxypyrazolo[1,5-a]pyridine-7-carboxamide] | > 70 | 
CONC(=O)c1c(NC(=O)c2cc(Br)nn2-c2ncccc2Cl)ccc2ccnn12 [Compound 163, 6-(3-bromo-1-(3-chloropyridin-2-yl)-1H-pyrazole-5-carboxamido)-N-methoxypyrazolo[1,5-a]pyridine-7-carboxamide] | > 70 | 
CCC(CC)NC(=O)c1c(NC(=O)c2cc(Br)nn2-c2ncccc2Cl)c(C)cc2ccnn12 [Compound 185, 6-(3-bromo-1-(3-chloropyridin-2-yl)-1H-pyrazole-5-carboxamido)-5-methyl-N-(pentan-3-yl)pyrazolo[1,5-a]pyridine-7-carboxamide] | > 70 | 
CCC(COC)NC(=O)c1c(NC(=O)c2cc(Br)nn2-c2ncccc2Cl)c(C)cc2ccnn12 (centres unmarked) [Compound 192, 6-(3-bromo-1-(3-chloropyridin-2-yl)-1H-pyrazole-5-carboxamido)-N-(1-methoxybutan-2-yl)-5-methylpyrazolo[1,5-a]pyridine-7-carboxamide] | > 70 | 
CCC(COC)NC(=O)c1c(NC(=O)c2cc(OC)nn2-c2ncccc2Cl)c(C)cc2ccnn12 (centres unmarked) [Compound 205, 6-(1-(3-chloropyridin-2-yl)-3-methoxy-1H-pyrazole-5-carboxamido)-N-(1-methoxybutan-2-yl)-5-methylpyrazolo[1,5-a]pyridine-7-carboxamide] | > 70 | 
Cc1cc2ccnn2c(C(=O)NC2CS(=O)(=O)C2)c1NC(=O)c1cc(Br)nn1-c1ncccc1Cl [Compound 208, 6-(3-bromo-1-(3-chloropyridin-2-yl)-1H-pyrazole-5-carboxamido)-N-(1,1-dioxidothietan-3-yl)-5-methylpyrazolo[1,5-a]pyridine-7-carboxamide] | > 70 | 
COc1cc(C(=O)Nc2c(C)cc3ccnn3c2C(=O)NC(C)CCC(C)C)n(-c2ncccc2Cl)n1 (centres unmarked) [Compound 210, 6-(1-(3-chloropyridin-2-yl)-3-methoxy-1H-pyrazole-5-carboxamido)-5-methyl-N-(5-methylhexan-2-yl)pyrazolo[1,5-a]pyridine-7-carboxamide] | > 70 | 
COc1cc(C(=O)Nc2c(C)cc3ccnn3c2C(=O)NC(C)C(C)C)n(-c2ncccc2Cl)n1 (centres unmarked) [Compound 212, 6-(1-(3-chloropyridin-2-yl)-3-methoxy-1H-pyrazole-5-carboxamido)-5-methyl-N-(3-methylbutan-2-yl)pyrazolo[1,5-a]pyridine-7-carboxamide] | > 70 | 
COc1cc(C(=O)Nc2c(Br)cc3ccnn3c2C(=O)NC2(C)CC2)n(-c2ncccc2Cl)n1 [Compound 223, 5-bromo-6-(1-(3-chloropyridin-2-yl)-3-methoxy-1H-pyrazole-5-carboxamido)-N-(1-methylcyclopropyl)pyrazolo[1,5-a]pyridine-7-carboxamide] | > 70 | 
